From patent US20040106545A1, “Compounds and methods for modulating cell adhesion” (priority 1996, published 2004)

Legend:
SKOV3 tumors = experiment: Induction of apoptosis in SKOV3 tumors in nude mice (Apoptag); type: in vivo, mouse
Description: SKOV3 cells (ATCC) were grown to 70% confluence in Minimum Essential Medium (Life Technologies, Grand Island, N.Y.) supplemented with 10% Fetal Bovine Serum (Wisent, St. Bruno, Quebec) in a humidified atmosphere containing 5% CO2. Cells were then dissociated with 0.02% PBS/EDTA. Total cell count and viable cell number was determined by trypan blue stain and a hemacytometer.
Approximately 1×10^7 cells were resuspended in 400 μl saline and injected in 6-week-old CD-1 nude mice (female, Charles River) subcutaneously. After 20 days of continuous tumor growth, tumor size was about 4.0 mm. The tumor-bearing animals were then injected intraperitoneally every day with 20 mg/kg of the representative peptide modulating agent N—Ac-CHAVC-NH2 (SEQ ID NO:10) or saline, for 48 hours, 96 hours, 120 hours or 168 hours. […]
Tumor tissue was dissected and fixed in PBS with 4% paraformaldehyde for 48 hours. Specimens were then dehydrated in a series of alcohol incubations, and embedded in paraffin wax. Apoptosis was assessed using the Apoptag kit (Intergen, Purchase N.Y.) according to the manufacturer's protocol, with slight modifications. More specifically, sections were deparaffinized and re-hydrated. After a five minute wash with PBS, the slides were treated with 20 μg/ml Proteinase K in PBS for 15 minutes at room temperature. This was followed by two washes with distilled water (2 minutes each wash). […]

mice = experiment: Acute toxicity study in mice; type: in vivo, mouse
Description: Mice were injected intraperitoneally for seven consecutive days with 20 mg/kg of N—Ac-CHAVC-NH2 (SEQ ID NO:10) and sacrificed 24 hr after treatment.
Mice were injected intraperitoneally with 125 mg/kg of N—Ac-CHAVC-NH2 (SEQ ID NO:10) for three consecutive days and sacrificed on the fourth day.
Mice were injected intravenously with either a saline control or 200 mg/kg of N—Ac-CHAVC-NH2 (SEQ ID NO:10). Mice were sacrificed after 24 hours, or allowed a 14-day recovery period.

[1] = tested on: Human saphenous vein vascular smooth muscle cells; experiment: Vascular smooth muscle cell migration after scrape-wounding; type: cell-based; conditions: 1 mg/mL, 24 hours after wounding
Description: An illustrative assay for evaluating the modulating of vascular smooth muscle cell migration may be performed as follows (as described in Example 23). Human saphenous vein vascular smooth muscle cells are explanted from surplus segments of vein from patients undergoing coronary artery bypass surgery. Cells are maintained in Dulbecco's modified essential medium supplemented with penicillin, streptomycin, L-glutamine and 10% fetal calf serum and are grown to confluence on glass coverslips in the presence or absence of collagen type I. The cell layer is then subjected to scrape-wounding by drawing a fine cell scraper across the coverslip. Proliferation of the vascular smooth muscle cells is inhibited by addition of 2 mM hydroxyurea to the culture media. […] The migratory capacity of the vascular smooth muscle cells is assessed by measuring the distance of migration into the wound area (outermost 100 μm from the wound) using image analysis software at 24 hours after wounding.
Human saphenous vein vascular smooth muscle cells were explanted from surplus segments of vein from patients undergoing coronary artery bypass surgery. […] The migratory capacity of the vascular smooth muscle cells was assessed by measuring the distance of migration into the wound area (outermost 100 μm from the wound) using image analysis software at 24 hours after wounding.

Rat = experiment: Acute toxicity study in rat; type: in vivo; conditions: intravenously, 100 mg/kg
[2] = tested on: Human saphenous vein vascular smooth muscle cells; experiment: Vascular smooth muscle cell apoptosis and death in aggregates (agarose-coated wells); type: cell-based; conditions: 0.5 mg/mL
Description: Human saphenous vein vascular smooth muscle cells were explanted from surplus segments of vein from patients undergoing coronary artery bypass surgery. Cells were maintained in Dulbecco's modified essential medium supplemented with […], 2 mmol/L L-glutamine and 10% fetal calf serum and were grown in agarose-coated wells. Under these conditions the cells are unable to attach to the underlying substratum and adhere to one another by cell-cell contacts only, forming aggregates. The percentage of dead cells was assessed by staining with Trypan blue or by fixing the cells and staining with Hoescht (H-33342). Trypan blue stain is absorbed only by non-viable cells when the integrity of the cell membrane is breached (Freshney, R. (1987) Culture of Animal Cells: A Manual of Basic Technique, p. 117, Alan R. Liss, Inc., New York) whereas Hoescht stain enters living cells (Shapiro (1981) Cytometry 2, 143-150).

CC(=O)N[C@H]1CSSC[C@@H](C(N)=O)NC(=O)[C@H](C(C)C)NC(=O)[C@H](C)NC(=O)[C@H](Cc2c[nH]cn2)NC1=O [N—Ac—CHAVC—NH2, N-Ac-Cys-His-Ala-Val-Cys-NH2]
apoptotic cells in tumor sections (SKOV3 tumors; 20 mg/kg ip every day for 48, 96, 120 or 168 hours): show an increase in apoptotic cells with longer treatment | apoptotic cells in tumor sections (SKOV3 tumors; 20 mg/kg once daily for four days, sacrificed 11 days after the last treatment): extensive area of apoptotic cells within the center of the tumor | gross or histopathological findings (mice; intraperitoneally, 125 mg/kg, three consecutive days, sacrificed on the fourth day): No gross or histopathological findings related to the treatment were found | gross or histopathological findings (mice; intraperitoneally, seven consecutive days, 20 mg/kg, sacrificed 24 hr after treatment): No gross or histopathological findings related to the treatment were found | mortality (mice; intravenously, 200 mg/kg): no animals died during the study | gross or histopathological findings (mice; intravenously, 200 mg/kg, sacrificed after 24 hours or 14-day recovery): no gross or histopathological findings related to the treatment were found | reduction of vascular smooth muscle cell migration ([1]; collagen): 56±5% | reduction of vascular smooth muscle cell migration ([1]; glass): 53±8% | gross or histopathological findings (Rat): no gross or histopathological findings related to the treatment | aggregation of vascular smooth muscle cells [2]: inhibits aggregation | increase in apoptosis and cell death in aggregates ([2]; 24 hr, n=4, p<0.05): 2 fold
